Measured values taken from patent US9902739B2, “Small molecule inhibitors of G protein coupled receptor 6 kinases polypeptides” (Mayo Foundation for Medical Education and Research, priority 2014, dated 2018).
pIC50: −log10 of the molar value.

Molecular target: T1, GRK6, recombinant full-length GST-tagged human protein (Homo sapiens, UniProt P43250)
T1 construct: Enzyme: 20 nM GRK6, recombinant full-length GST-tagged human protein; GST
Assay: GRK6 assay, IC50 determination (8-point concentration-response)
Assay type: biochemical
Method: The following assay conditions were used.
Buffer: 50 mM TRIS-HCl, pH 7.5, 5 mM MgCl2, 2 mM DTT, 0.01% Triton X-100, 10 μM Na3VO4, 10 μM b-GP, 1% DMSO
Enzyme: 20 nM GRK6, recombinant full-length GST-tagged human protein
Peptide substrate (Peptide 216): 1 μM
One hundred two compounds (1-1-1-102) were further characterized by determining IC50 values in a GRK6 assay. This screen has been previously described in WO 2013/063458, which is incorporated by reference in its entirety herein. Briefly, the following activities were performed: 8-point concentration-response determinations in singlicate wells (top concentration=60 μM, 3-fold dilution steps); Repeat tests for QC failed or inconclusive compounds; and Repeat tests (titrate down) for compounds with >50% inhibition at all tested concentrations.
Twelve compounds (2-1-2-12) were further characterized by determining the IC50 values in a GRK6 assay. This screen has been previously described in WO 2013/063458, which is incorporated by reference in its entirety herein. Specific activities were performed as described above (Example 18).
Thirty-six compounds (3-1-3-36) were further characterized by determining the IC50 values in a GRK6 assay. This screen has been previously described in WO 2013/063458, which is incorporated by reference in its entirety herein. Specific activities were performed as described above (Example 18).
Fifty-four compounds (4-1-4-54) were further characterized by determining the IC50 values in a GRK6 assay. This screen has been previously described in WO 2013/063458, which is incorporated by reference in its entirety herein. Specific activities were performed as described above (Example 18).

[1] = Series 1 (Table 11), 20 nM GRK6, ATP 12 μM (Km), Peptide 216 1 μM, incubation 7 h
[2] = Series 2 (Table 12), conditions as Example 18
[3] = Series 3 (Table 13), conditions as Example 18

T1 sequence (P43250 whole entry): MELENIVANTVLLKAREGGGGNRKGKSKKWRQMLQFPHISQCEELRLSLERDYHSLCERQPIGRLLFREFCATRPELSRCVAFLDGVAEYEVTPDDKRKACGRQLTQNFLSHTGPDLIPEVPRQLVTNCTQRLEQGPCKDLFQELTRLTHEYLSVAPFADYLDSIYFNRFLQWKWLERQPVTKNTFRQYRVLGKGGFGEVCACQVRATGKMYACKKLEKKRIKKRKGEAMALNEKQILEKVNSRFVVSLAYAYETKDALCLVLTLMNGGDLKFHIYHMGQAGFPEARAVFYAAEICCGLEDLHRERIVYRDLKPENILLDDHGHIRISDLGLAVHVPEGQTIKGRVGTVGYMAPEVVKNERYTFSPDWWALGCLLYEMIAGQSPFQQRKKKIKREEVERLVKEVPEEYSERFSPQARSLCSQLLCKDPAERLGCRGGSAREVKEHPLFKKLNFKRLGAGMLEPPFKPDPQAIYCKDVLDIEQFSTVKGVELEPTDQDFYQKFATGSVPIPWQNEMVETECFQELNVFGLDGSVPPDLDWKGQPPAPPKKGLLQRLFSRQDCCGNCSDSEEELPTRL

| SMILES | pIC50 [1] | pIC50 [3] | further results |
| --- | --- | --- | --- |
| CO/N=C/c1cc(-c2ccc(-c3nnc(SCC(=O)O)[nH]3)o2)ccc1OC [Compound 1-71] | 6.06 |  |  |
| O=C(O)CSc1nnc(-c2ccc(-c3ccc4c(c3)CCC(=O)N4)o2)[nH]1 [Compound 1-72] | 6.01 |  |  |
| O=C(O)CSc1nnc(-c2ccc(-c3ccccc3)o2)[nH]1 [Compound 1-73] | 6.00 |  |  |
| CCOC(=O)c1ccc(-c2ccc(-c3nnc(SCC(=O)O)[nH]3)o2)cc1 [Compound 1-74] | 5.99 |  |  |
| O=C(O)CSc1nnc(-c2ccc(-c3ccc(C(=O)NC4CC4)cc3)o2)[nH]1 [Compound 1-75] | 5.98 |  |  |
| O=C(O)CSc1nnc(-c2ccc(-c3ccc(Cl)s3)o2)[nH]1 [Compound 1-76, 2-((5-(5-(5-chlorothiophen-2-yl)furan-2-yl)-4H-1,2,4-triazol-3-yl)thio)acetic acid] | 5.95 |  |  |
| COc1ccc2cc(-c3oc(-c4nnc(SCC(=O)O)[nH]4)cc3-c3ccccc3)ccc2c1 [Compound 1-77] | 5.94 |  |  |
| CC(C)CCn1ccc(-c2ccc(-c3nnc(SCC(=O)O)[nH]3)o2)n1 [Compound 1-78] | 5.93 |  |  |
| O=C(O)CSc1nnc(-c2ccc(-c3ccc4nccnc4c3)o2)[nH]1 [Compound 1-79] | 5.93 |  |  |
| O=C(O)CSc1nnc(-c2ccc(-c3ccc[nH]3)o2)[nH]1 [Compound 1-80] | 5.92 |  |  |
| COc1ccc(-c2ccc(-c3nnc(SCC(=O)O)[nH]3)o2)cc1 [Compound 1-81] | 5.92 |  |  |
| O=C(O)CSc1nnc(-c2ccc(-c3ccc([N+](=O)[O-])cc3)o2)[nH]1 [Compound 1-82] | 5.88 |  |  |
| Nc1cccc(-c2ccc(-c3nnc(SCC(=O)O)[nH]3)o2)c1 [Compound 1-83] | 5.85 |  |  |
| O=C(O)CSc1nnc(-c2ccc(-c3cccc(OCc4ccc(OC(F)(F)F)c(Cl)c4)c3)o2)[nH]1 [Compound 1-84] | 5.84 |  |  |
| O=C(O)CSc1nnc(-c2ccc(-c3ccccc3Cl)o2)[nH]1 [Compound 1-85] | 5.84 |  |  |
| O=C(O)CSc1nnc(-c2cc3ccccc3o2)[nH]1 [Compound 1-86] | 5.80 |  |  |
| Cn1ccc2c(-c3ccc(-c4nnc(SCC(=O)O)[nH]4)o3)cccc21 [Compound 1-87] | 5.74 |  |  |
| COc1ccc(-c2ccc(-c3nnc(SCC(=O)O)[nH]3)o2)cn1 [Compound 1-88] | 5.74 |  |  |
| O=C(O)CSc1nnc(-c2ccc(Cn3c4ccccc4c4ccccc43)o2)[nH]1 [Compound 1-89] | 5.69 |  |  |
| O=C(O)CSc1nnc(-c2ccc(-c3ccc(C(F)(F)F)nc3)o2)[nH]1 [Compound 1-90] | 5.69 |  |  |
| O=C(O)CSc1nnc(-c2ccc(-c3ccc(Cl)nc3)o2)[nH]1 [Compound 1-91] | 5.68 |  |  |
| Nc1cc(-c2ccc(-c3nnc(SCC(=O)O)[nH]3)o2)ccn1 [Compound 1-92, 2-((5-(5-(2-aminopyridin-4-yl)furan-2-yl)-4H-1,2,4-triazol-3-yl)thio)acetic acid] | 5.66 |  |  |

| SMILES | pIC50 [1] | pIC50 [3] | further results |
| --- | --- | --- | --- |
| C#Cc1ccc(-c2nnc(SCC(=O)O)[nH]2)o1 [Compound 1-93] | 5.64 |  |  |
| O=C(O)CSc1nnc(-c2ccc(-c3ccccc3C(F)(F)F)o2)[nH]1 [Compound 1-94] | 5.51 |  |  |
| O=C(O)CSc1nnc(-c2ccc(-c3ccccc3[N+](=O)[O-])o2)[nH]1 [Compound 1-95] | 5.50 |  |  |
| Cc1nn(C)cc1-c1ccc(-c2nnc(SCC(=O)O)[nH]2)o1 [Compound 1-96] | 5.48 |  |  |
| O=C(O)CSc1nnc(-c2ccc(Br)o2)[nH]1 [Compound 1-97] | 5.48 |  |  |
| Cn1cc(-c2ccc(-c3nnc(SCC(=O)O)[nH]3)o2)cn1 [Compound 1-98] | 5.43 |  |  |
| Cc1n[nH]c(C)c1-c1ccc(-c2nnc(SCC(=O)O)[nH]2)o1 [Compound 1-99] | 5.36 |  |  |
| O=C(O)CSc1nnc(-c2ccc(-c3cnn(CCN4CCOCC4)c3)o2)[nH]1 [Compound 1-100] | 5.21 |  |  |
| O=C(O)CSc1nnc(-c2ccc(C(c3ccccc3)c3ccccc3)o2)[nH]1 [Compound 1-101] | 5.17 |  |  |
| COC(=O)CSc1nnc(-c2ccc(C#Cc3ccc4ccccc4c3)o2)[nH]1 [Compound 1-102] | 5.08 |  |  |
| COc1cc(Cl)cc(-c2ccc(-c3cc(SCC(=O)O)n[nH]3)o2)c1 [Compound 2-1] |  |  | pIC50 [2]: 6.51 |
| O=C(O)CSc1cc(-c2ccc(-c3ccc(Cl)c(Cl)c3)s2)[nH]n1 [Compound 2-2] |  |  | pIC50 [2]: 6.40 |
| O=C(O)CSc1cc(-c2ccc(-c3ccc(Cl)c(Cl)c3)o2)[nH]n1 [Compound 2-3] |  |  | pIC50 [2]: 6.32 |
| COc1cc(Cl)cc(-c2ccc(-c3cc(SCC(=O)O)n[nH]3)s2)c1 [Compound 2-4] |  |  | pIC50 [2]: 6.22 |
| COc1ccc2cc(C#Cc3ccc(-c4cc(SCC(=O)O)n[nH]4)o3)ccc2c1 [Compound 2-5] |  |  | pIC50 [2]: 6.20 |
| COc1ccc2cc(-c3ccc(-c4cc(SCC(=O)O)n[nH]4)s3)ccc2c1 [Compound 2-6] |  |  | pIC50 [2]: 6.14 |
| O=C(O)CSc1cc(-c2ccc(-c3ccc4ccccc4c3)s2)[nH]n1 [Compound 2-7] |  |  | pIC50 [2]: 6.10 |
| Cn1c2ccccc2c2ccc(-c3ccc(-c4cc(SCC(=O)O)n[nH]4)o3)cc21 [Compound 2-8] |  |  | pIC50 [2]: 5.90 |
| O=C(O)CSc1cc(-c2ccc(-c3ccc4c(c3)[nH]c3ccccc34)o2)[nH]n1 [Compound 2-9] |  |  | pIC50 [2]: 5.89 |
| COc1ccc2cc(-c3cc(SCC(=O)O)n[nH]3)ccc2c1 [Compound 2-10] |  |  | pIC50 [2]: 5.83 |
| O=C(O)CSc1cc(-c2ccc(Br)o2)[nH]n1 [Compound 2-11] |  |  | pIC50 [2]: 5.26 |
| O=C(O)CSc1cc(-c2ccccc2)[nH]n1 [Compound 2-12, 2-[(5-phenyl-1H-pyrazol-3-yl)sulfanyl]acetic acid] |  |  | pIC50 [2]: 4.74 |

Continued, in another order:

| pIC50 [1] | pIC50 [3] | SMILES | further results |
| --- | --- | --- | --- |
|  | 6.35 | c1ccc2cc(-c3ccc(-c4nnc(SCc5nnn[nH]5)[nH]4)o3)ccc2c1 [Compound 3-1] |  |
|  | 6.26 | Clc1cc(Cl)cc(-c2ccc(-c3nnc(SCc4nnn[nH]4)[nH]3)o2)c1 [Compound 3-2] |  |
|  | 6.18 | c1cnc2ccc(-c3ccc(-c4nnc(SCc5nnn[nH]5)[nH]4)o3)cc2c1 [Compound 3-3] |  |
|  | 6.06 | FC(F)(F)c1cc(-c2ccc(-c3nnc(SCc4nnn[nH]4)[nH]3)o2)cc2cccnc12 [Compound 3-4] |  |
|  | 6.05 | c1ccc(-c2cccc(-c3ccc(-c4nnc(SCc5nnn[nH]5)[nH]4)o3)c2)cc1 [Compound 3-5] |  |
|  | 5.96 | c1ccc2ncc(-c3ccc(-c4nnc(SCc5nnn[nH]5)[nH]4)o3)cc2c1 [Compound 3-6] |  |
|  | 5.92 | COc1cc(Cl)cc(-c2cc(-c3nnc(SCc4nnn[nH]4)[nH]3)cc([N+](=O)[O-])c2)c1 [Compound 3-7] |  |
|  | 5.90 | c1cc2cc(-c3ccc(-c4nnc(SCc5nnn[nH]5)[nH]4)o3)ccc2[nH]1 [Compound 3-8] |  |
|  | 5.89 | COc1ccc(C(F)(F)F)cc1-c1ccc(-c2nnc(SCc3nnn[nH]3)[nH]2)o1 [Compound 3-9] |  |
|  | 5.82 | O=c1[nH]c2ccc(-c3ccc(-c4nnc(SCc5nnn[nH]5)[nH]4)o3)cc2[nH]1 [Compound 3-10] |  |
|  | 5.82 | COc1ccc2cc(-c3ccc(-c4nnc(SCc5nnn[nH]5)[nH]4)o3)ccc2c1 [Compound 3-11] |  |
|  | 5.80 | c1cc2ccc(-c3ccc(-c4nnc(SCc5nnn[nH]5)[nH]4)o3)cc2[nH]1 [Compound 3-12] |  |
|  | 5.67 | COc1cc(-c2ccc(-c3nnc(SCc4nnn[nH]4)[nH]3)o2)cc(C(F)(F)F)c1 [Compound 3-13] |  |
|  | 5.63 | c1cnc2c(-c3ccc(-c4nnc(SCc5nnn[nH]5)[nH]4)o3)cccc2c1 [Compound 3-14] |  |
|  | 5.61 | CC(=O)c1cccc(-c2ccc(-c3nnc(SCc4nnn[nH]4)[nH]3)o2)c1 [Compound 3-15] |  |
|  | 5.59 | FC(F)(F)c1cccc(-c2ccc(-c3nnc(SCc4nnn[nH]4)[nH]3)o2)c1 [Compound 3-16] |  |
|  | 5.54 | COc1cc(F)cc(-c2ccc(-c3nnc(SCc4nnn[nH]4)[nH]3)o2)c1 [Compound 3-17] |  |
|  | 5.48 | Fc1cc(F)cc(-c2ccc(-c3nnc(SCc4nnn[nH]4)[nH]3)o2)c1 [Compound 3-18] |  |
|  | 5.45 | FC(F)(F)c1cc(-c2ccc(-c3nnc(SCc4nnn[nH]4)[nH]3)o2)ccc1Cl [Compound 3-19] |  |
|  | 5.44 | N#Cc1cccc(-c2ccc(-c3nnc(SCc4nnn[nH]4)[nH]3)o2)c1 [Compound 3-20] |  |
|  | 5.43 | CS(=O)(=O)Nc1ccc(-c2ccc(-c3nnc(SCc4nnn[nH]4)[nH]3)o2)cc1 [Compound 3-21] |  |
|  | 5.42 | CNS(=O)(=O)c1ccc(-c2ccc(-c3nnc(SCc4nnn[nH]4)[nH]3)o2)cc1 [Compound 3-22] |  |
|  | 5.42 | CC(=O)Nc1cccc(-c2ccc(-c3nnc(SCc4nnn[nH]4)[nH]3)o2)c1 [Compound 3-23] |  |
|  | 5.42 | Fc1cc(-c2ccc(-c3nnc(SCc4nnn[nH]4)[nH]3)o2)cc(F)c1F [Compound 3-24] |  |
|  | 5.33 | CS(=O)(=O)Nc1cccc(-c2ccc(-c3nnc(SCc4nnn[nH]4)[nH]3)o2)c1 [Compound 3-25] |  |
|  | 5.26 | Fc1cccc(-c2ccc(-c3nnc(SCc4nnn[nH]4)[nH]3)o2)c1F [Compound 3-26] |  |
|  | 5.25 | Fc1cccc(-c2ccc(-c3nnc(SCc4nnn[nH]4)[nH]3)o2)c1 [Compound 3-27] |  |
